Measured values: ChEMBL document CHEMBL3399981, “Novel neurotrophic phenylbutenoids from Indonesian ginger Bangle, Zingiber purpureum” (Bioorg Med Chem Lett, 2015)
Active and inactive are the calls of the source. No cut-off for these calls is given here.

What was measured:
PC-12 [1] = assay: Neuritogenic activity in rat PC12 cells assessed as neurite outgrowth at 1 to 30 uM after 4 days by phase-contrast microscopy in presence of 2 ng/ml NGF; type: functional, cell-based
[2] = biological target: Amyloid-beta precursor protein (Homo sapiens) (UniProt P05067); assay: Inhibition of beta-sheet formation in amyloid beta-42 (unknown origin) assessed as decrease in ThT fluorescence at 50 uM after 1 hr by spectrophotometric plate reader
PC-12 [3] = assay: Neuritogenic activity in rat PC12 cells assessed as neurite outgrowth at 30 uM after 4 days by phase-contrast microscopy; type: functional, cell-based
[4] = biological target: Amyloid-beta precursor protein (Homo sapiens) (UniProt P05067); assay: Inhibition of beta-sheet formation in amyloid beta-42 (unknown origin) assessed as decrease in ThT fluorescence after 1 hr by spectrophotometric plate reader
PC-12 [5] = assay: Neuritogenic activity in rat PC12 cells assessed as neurite outgrowth at 10 uM after 4 days by phase-contrast microscopy in presence of 2 ng/ml NGF; type: functional, cell-based
[6] = Toxicity in rat PC12 cells at > 30 uM after 4 days by phase-contrast microscopy in presence of 2 ng/ml NGF; type: cell-based; settings: pc-12, 96 h
PC-12 [7] = assay: Neuritogenic activity in rat PC12 cells assessed as neurite outgrowth after 4 days by phase-contrast microscopy in presence of 2 ng/ml NGF; type: functional, cell-based
PC-12 [8] = assay: Neuritogenic activity in rat PC12 cells assessed as neurite outgrowth at 1 uM after 4 days by phase-contrast microscopy in presence of 2 ng/ml NGF; type: functional, cell-based
[9] = Toxicity in rat PC12 cells at > 10 uM after 4 days by phase-contrast microscopy in presence of 2 ng/ml NGF; type: cell-based; settings: pc-12, 96 h

Sequence of Amyloid-beta precursor protein (Homo sapiens) (P05067 whole entry): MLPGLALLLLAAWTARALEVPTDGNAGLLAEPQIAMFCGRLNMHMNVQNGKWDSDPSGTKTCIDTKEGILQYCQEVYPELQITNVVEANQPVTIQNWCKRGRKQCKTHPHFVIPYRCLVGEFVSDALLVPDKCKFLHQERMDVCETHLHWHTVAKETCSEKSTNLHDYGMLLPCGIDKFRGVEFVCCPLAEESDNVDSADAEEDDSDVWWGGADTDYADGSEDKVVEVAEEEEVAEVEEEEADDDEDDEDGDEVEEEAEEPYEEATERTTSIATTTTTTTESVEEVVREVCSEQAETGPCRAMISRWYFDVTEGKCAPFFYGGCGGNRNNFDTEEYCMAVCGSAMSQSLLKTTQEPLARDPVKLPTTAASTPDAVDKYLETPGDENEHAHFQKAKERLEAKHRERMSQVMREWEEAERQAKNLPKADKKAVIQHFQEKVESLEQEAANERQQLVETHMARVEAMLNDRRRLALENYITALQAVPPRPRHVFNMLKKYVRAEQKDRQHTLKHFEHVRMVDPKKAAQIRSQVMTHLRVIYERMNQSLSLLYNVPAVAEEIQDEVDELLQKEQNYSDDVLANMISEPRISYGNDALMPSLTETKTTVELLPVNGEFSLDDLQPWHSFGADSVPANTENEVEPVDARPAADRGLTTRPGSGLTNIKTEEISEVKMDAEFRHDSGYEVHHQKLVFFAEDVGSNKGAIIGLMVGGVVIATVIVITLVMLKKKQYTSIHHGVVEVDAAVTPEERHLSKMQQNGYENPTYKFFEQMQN

COc1ccc([C@H]2[C@H](CCO)CC=C[C@@H]2c2ccc(OC)c(OC)c2)cc1OC
Activity (PC-12 [1]): inactive

COc1ccc(/C=C/[C@H]2CCC=C[C@@H]2c2ccc(OC)c(OC)c2)cc1OC
inhibition [2]: 59.6% | Activity (PC-12 [3]): Active | inhibition [4]: Dose-dependent effect

COc1cc(/C=C/C(=O)C2(C(=O)/C=C/c3ccc(O)c(OC)c3)CCC=C[C@@H]2c2cc(OC)c(OC)cc2OC)ccc1O
Activity (PC-12 [5]): Active | Activity [6]: Toxic | Activity (PC-12 [7]): Dose-dependent effect | Activity (PC-12 [8]): Active

COc1cc(/C=C/C(=O)C2(C(=O)/C=C/c3ccc(O)c(OC)c3)CCC=C[C@@H]2c2ccc(OC)c(OC)c2)ccc1O
inhibition [2]: 18.9% | Activity (PC-12 [7]): Dose-dependent effect | inhibition [4]: Dose-dependent effect | Activity (PC-12 [8]): Active | Activity [9]: Toxic
